Data: patent US12723023B2, “Ionizable cationic lipids for RNA delivery” (Arcturus Therapeutics, Inc., priority 2021, dated 2026)

Tests used:
[1] = Mouse plasma stability; format: in vitro ADME, CD-1 mouse; settings: 1 μM lipid
Experimental: Lipid stock solution was prepared by dissolution of the lipid in isopropanol at the concentration of 5 mg/mL. A requisite volume of the lipid-isopropanol solution was then diluted to 100 μM concentration at a total volume of 1.0 mL with in 50:50 (v/v) ethanol/water. Ten microliters of this 100 μM solution was spiked into 1.0 mL of mouse plasma (BioIVT, Cat. No.: MSE00PLNHUNN, CD-1 mouse, anticoagulant: sodium heparin, not filtered) that was pre-warmed to 37° C. and was stirred at 50 rpm with a magnetic stir bar. The starting concentration of lipids in plasma was thus 1 μM. At time points 0, 15, 30, 45, 60 and 120 min, 0.1 mL of the plasma was withdrawn from the reaction mixture and the protein was precipitated by adding 0.9 mL of ice-cold 4:1 (v/v) acetonitrile/methanol with 1 μg/mL of a selected internal standard lipid added. After filtration through a 0.45 micron 96-well filtering plate, the filtrates were analyzed by LC-MS (Thermo Fisher's Vanquish UHPLC-LTQ XL linear ion trap Mass Spectrometer); Waters XBridge BEH Shield RP18 2.5 micron (2.1×100 mm) column with its matching guard column. Mobile phase A was 0.1% formic acid in water, and mobile phase B was 0.1% formic acid in 1:1 (v/v) acetonitrile/methanol. Flow rate was 0.5 ml/min. Elution gradient was: Time 0-1 min: 10% B; 1-6 min: 10%-95% B; 6-8.5 min: 95% B; 8.5-9 min: 95%-10% B; 9-10 min: 10% B. Mass spectrometry was in positive scanning mode from 600-1100 m/z. The peak of the molecular ion of the lipids was integrated in the extracted ion chromatography (XIC) using Xcalibur software (Thermo Fisher). The relative peak area compared to T=0, after normalization by the peak area of the internal standard, was used as the percentage of the lipid remaining at each time point. T1/2 values were calculated using the first-order decay model.

[2] = In vivo biodegradability assay (lipid concentration in mouse liver by LC-MS); design: species or system mice; settings: BLOQ: below level of quantification; for In vivo degradability (ng tissue) at 48 h 0.1 mpk: Table 1, 0.1 mpk; for In vivo degradability (ng/tissue) at 48 h 0.1 mpk: Table 2, 0.1 mpk
Experimental: In vivo biodegradability assay was performed to assess the biodegradability of lipids in the LNP. Briefly, mice were injected with either 0.1 or 0.03 mg/Kg dose and after 24 or 48 hours mice livers were collected. To measure the concentration of lipids in the mouse liver, liver samples were homogenized in appropriate buffer in 1-10 dilution and mixed with the same amount of stabilized plasma. The samples were then mixed with organic solvents spiked with internal standard to precipitate proteins. After centrifugation, supernatant was diluted further with organic solvent before sample analysis by LC-MS. In LC-MS analysis, positive electrospray ionization was used, and multiple reaction monitoring (MRM) parameters were set up to specifically target the lipid analyte and internal standard. Calibration standards were prepared in stabilized plasma and mixed with same amount of homogenization buffer before protein precipitation. Quality control samples with known amounts of lipid was prepared in blank liver homogenate to monitor the precision and accuracy of the assay.

Compound: CCCCCCCCC(=O)OCC(COC(=O)CCCCCCCC)OC(=O)CCCN(CCCC(=O)OC(COC(=O)CCCCCCCC)COC(=O)CCCCCCCC)C(=O)SCCCN(C)C [LIPID 1, ((4,4′-((((3-(Dimethylamino)propyl)thio)carbonyl)azanediyl)bis(butanoyl))bis(oxy))bis(propane-2,1,3-triyl) tetranonanoate]
- Plasma half life % remaining after 2 h ([1]; Table 1, 37° C.): 14%
- Plasma half life % remaining after 2 h ([1]; Table 2, 37° C.): 14%
- In vivo degradability (ng/tissue) at 48 h 0.03 mpk ([2]; Table 1, 0.03 mpk): BLOQ
- In vivo degradability (ng tissue) at 48 h 0.1 mpk [2]: BLOQ
- In vivo degradability (ng/tissue) at 48 h 0.03 mpk ([2]; Table 2, 0.03 mpk): BLOQ
- In vivo degradability (ng/tissue) at 48 h 0.1 mpk [2]: BLOQ

Compound: CCCCCCCCC(=O)OCC(COC(=O)CCCCCCCC)OC(=O)CCCC(CCCC(=O)OC(COC(=O)CCCCCCCC)COC(=O)CCCCCCCC)OC(=O)CCCN(C)C.Cl [LIPID 3, bis(1,3-bis(Nonanoyloxy)propan-2-yl) 5-((4-(dimethylamino)butanoyl)oxy)nonanedioate HCl Salt]
- Plasma half life % remaining after 2 h ([1]; Table 1, 37° C.): 15%
- Plasma half life % remaining after 2 h ([1]; Table 2, 37° C.): 15%
- In vivo degradability (ng/tissue) at 48 h 0.03 mpk ([2]; Table 1, 0.03 mpk): BLOQ
- In vivo degradability (ng tissue) at 48 h 0.1 mpk [2]: BLOQ
- In vivo degradability (ng/tissue) at 48 h 0.03 mpk ([2]; Table 2, 0.03 mpk): BLOQ
- In vivo degradability (ng/tissue) at 48 h 0.1 mpk [2]: BLOQ

Compound: CCCCCCCC(=O)OCC(COC(=O)CCCCCCC)OC(=O)CCCC(CCCC(=O)OC(COC(=O)CCCCCCC)COC(=O)CCCCCCC)SC(=O)CCCN(C)C [LIPID 4, bis(1,3-bis(Octanoyloxy)propan-2-yl) 5-((4-(dimethylamino)butanoyl)thio)nonanedioate]
- Plasma half life % remaining after 2 h ([1]; Table 1, 37° C.): 13%
- Plasma half life % remaining after 2 h ([1]; Table 2, 37° C.): 13%
- In vivo degradability (ng/tissue) at 48 h 0.03 mpk ([2]; Table 1, 0.03 mpk): BLOQ
- In vivo degradability (ng tissue) at 48 h 0.1 mpk [2]: BLOQ
- In vivo degradability (ng/tissue) at 48 h 0.03 mpk ([2]; Table 2, 0.03 mpk): BLOQ
- In vivo degradability (ng/tissue) at 48 h 0.1 mpk [2]: BLOQ

Compound: CCCCCCCCC(=O)OCC(COC(=O)CCCCCCCC)OC(=O)CCC(CCC(=O)OC(COC(=O)CCCCCCCC)COC(=O)CCCCCCCC)OC(=O)CCCN(C)C [LIPID 5, bis(1,3-bis(Nonanoyloxy)propan-2-yl) 4-((4-(dimethylamino)butanoyl)oxy)heptanedioate]
- Plasma half life % remaining after 2 h ([1]; Table 1, 37° C.): 40%
- Plasma half life % remaining after 2 h ([1]; Table 2, 37° C.): 40%
- In vivo degradability (ng/tissue) at 48 h 0.03 mpk ([2]; Table 1, 0.03 mpk): BLOQ
- In vivo degradability (ng tissue) at 48 h 0.1 mpk [2]: BLOQ
- In vivo degradability (ng/tissue) at 48 h 0.03 mpk ([2]; Table 2, 0.03 mpk): BLOQ
- In vivo degradability (ng/tissue) at 48 h 0.1 mpk [2]: BLOQ

Compound: CCCCCCCCC(=O)OCC(COC(=O)CCCCCCCC)OC(=O)CN(CC(=O)OC(COC(=O)CCCCCCCC)COC(=O)CCCCCCCC)C(=O)SCCCN(C)C [LIPID 8, ((2,2′-((((3-(Dimethylamino)propyl)thio)carbonyl)azanediyl)bis(acetyl))bis(oxy))bis(propane-2,1,3-triyl) tetranonanoate]
- Plasma half life % remaining after 2 h ([1]; Table 1, 37° C.): 81%
- Plasma half life % remaining after 2 h ([1]; Table 2, 37° C.): 81%
- In vivo degradability (ng/tissue) at 48 h 0.03 mpk ([2]; Table 1, 0.03 mpk): BLOQ
- In vivo degradability (ng tissue) at 48 h 0.1 mpk [2]: BLOQ
- In vivo degradability (ng/tissue) at 48 h 0.03 mpk ([2]; Table 2, 0.03 mpk): BLOQ
- In vivo degradability (ng/tissue) at 48 h 0.1 mpk [2]: BLOQ

Compound: CN(C)CCCSC(=O)N(CCCC(=O)OC(COC(=O)CCC1CCCCC1)COC(=O)CCC1CCCCC1)CCCC(=O)OC(COC(=O)CCC1CCCCC1)COC(=O)CCC1CCCCC1 [LIPID 10, ((4,4′-((((3-(Dimethylamino)propyl)thio)carbonyl)azanediyl)bis(butanoyl))bis(oxy))bis(propane-2,1,3-triyl) tetrakis(3-cyclohexylpropanoate)]
- Plasma half life % remaining after 2 h ([1]; Table 1, 37° C.): 36%
- Plasma half life % remaining after 2 h ([1]; Table 2, 37° C.): 36%
- In vivo degradability (ng/tissue) at 48 h 0.03 mpk ([2]; Table 1, 0.03 mpk): BLOQ
- In vivo degradability (ng tissue) at 48 h 0.1 mpk [2]: BLOQ
- In vivo degradability (ng/tissue) at 48 h 0.03 mpk ([2]; Table 2, 0.03 mpk): BLOQ
- In vivo degradability (ng/tissue) at 48 h 0.1 mpk [2]: BLOQ

Compound: CN(C)CCCSC(=O)N(CCCC(=O)OC(COC(=O)CCCC1CCCCC1)COC(=O)CCCC1CCCCC1)CCCC(=O)OC(COC(=O)CCCC1CCCCC1)COC(=O)CCCC1CCCCC1 [LIPID 11, ((4,4′-((((3-(Dimethylamino)propyl)thio)carbonyl)azanediyl)bis(butanoyl))bis(oxy))bis(propane-2,1,3-triyl) tetrakis(4-cyclohexylbutanoate)]
- Plasma half life % remaining after 2 h ([1]; Table 1, 37° C.): 40%
- Plasma half life % remaining after 2 h ([1]; Table 2, 37° C.): 40%
- In vivo degradability (ng/tissue) at 48 h 0.03 mpk ([2]; Table 1, 0.03 mpk): BLOQ
- In vivo degradability (ng tissue) at 48 h 0.1 mpk [2]: BLOQ
- In vivo degradability (ng/tissue) at 48 h 0.03 mpk ([2]; Table 2, 0.03 mpk): BLOQ
- In vivo degradability (ng/tissue) at 48 h 0.1 mpk [2]: BLOQ

Compound: CN(C)CCCSC(=O)N(CCCCCC(=O)OC(COC(=O)CCC1CCCCC1)COC(=O)CCC1CCCCC1)CCCCCC(=O)OC(COC(=O)CCC1CCCCC1)COC(=O)CCC1CCCCC1 [LIPID 12, ((6,6′-((((3 (dimethylamino)propyl)thio)carbonyl)azanediyl)bis(hexanoyl))bis(oxy))bis(propane-2,1,3-triyl) tetrakis(3-cyclohexylpropanoate)]
- Plasma half life % remaining after 2 h ([1]; Table 1, 37° C.): 57%
- Plasma half life % remaining after 2 h ([1]; Table 2, 37° C.): 57%
- In vivo degradability (ng/tissue) at 48 h 0.03 mpk ([2]; Table 1, 0.03 mpk): BLOQ
- In vivo degradability (ng tissue) at 48 h 0.1 mpk [2]: BLOQ
- In vivo degradability (ng/tissue) at 48 h 0.03 mpk ([2]; Table 2, 0.03 mpk): BLOQ
- In vivo degradability (ng/tissue) at 48 h 0.1 mpk [2]: BLOQ

Compound: CCCCCCCCC(=O)OCC(COC(=O)CCCCCCCC)OC(=O)CCN(CCC(=O)OC(COC(=O)CCCCCCCC)COC(=O)CCCCCCCC)C(=O)SCCCN(C)C [LIPID 13]
- Plasma half life % remaining after 2 h ([1]; Table 1, 37° C.): 74%
- Plasma half life % remaining after 2 h ([1]; Table 2, 37° C.): 74%
- In vivo degradability (ng/tissue) at 48 h 0.03 mpk ([2]; Table 1, 0.03 mpk): <340 ng/tissue
- In vivo degradability (ng tissue) at 48 h 0.1 mpk [2]: <340 ng tissue
- In vivo degradability (ng/tissue) at 48 h 0.03 mpk ([2]; Table 2, 0.03 mpk): <340 ng/tissue
- In vivo degradability (ng/tissue) at 48 h 0.1 mpk [2]: <340 ng/tissue

Compound: CCCCCCCCC(=O)OCC(COC(=O)CCCCCCCC)COC(=O)CCN(CCC(=O)OCC(COC(=O)CCCCCCCC)COC(=O)CCCCCCCC)C(=O)SCCCN(C)C [LIPID 14]
- Plasma half life % remaining after 2 h ([1]; Table 1, 37° C.): 116%
- Plasma half life % remaining after 2 h ([1]; Table 2, 37° C.): 100%
- In vivo degradability (ng/tissue) at 48 h 0.03 mpk ([2]; Table 1, 0.03 mpk): <340 ng/tissue
- In vivo degradability (ng tissue) at 48 h 0.1 mpk [2]: <340 ng tissue
- In vivo degradability (ng/tissue) at 48 h 0.03 mpk ([2]; Table 2, 0.03 mpk): <340 ng/tissue
- In vivo degradability (ng/tissue) at 48 h 0.1 mpk [2]: <340 ng/tissue

Compound: CC1CCC(CC(=O)OCC(COC(=O)CC2CCC(C)CC2)OC(=O)CCCN(CCCC(=O)OC(COC(=O)CC2CCC(C)CC2)COC(=O)CC2CCC(C)CC2)C(=O)SCCCN(C)C)CC1 (stereo not drawn) [LIPID 15, ((4,4′-((((3-(dimethylamino)propyl)thio)carbonyl)-azanediyl)bis(butanoyl))bis(oxy))bis(propane-2,1,3-triyl) tetrakis(2-(4-methylcyclohexyl)acetate)]
- Plasma half life % remaining after 2 h ([1]; Table 1, 37° C.): 256%
- Plasma half life % remaining after 2 h ([1]; Table 2, 37° C.): 100%
- In vivo degradability (ng/tissue) at 48 h 0.03 mpk ([2]; Table 1, 0.03 mpk): <340 ng/tissue
- In vivo degradability (ng tissue) at 48 h 0.1 mpk [2]: <340 ng tissue
- In vivo degradability (ng/tissue) at 48 h 0.03 mpk ([2]; Table 2, 0.03 mpk): <340 ng/tissue
- In vivo degradability (ng/tissue) at 48 h 0.1 mpk [2]: <340 ng/tissue

Compound: CCCCCCC(C)C(=O)OCC(COC(=O)C(C)CCCCCC)OC(=O)CCCN(CCCC(=O)OC(COC(=O)C(C)CCCCCC)COC(=O)C(C)CCCCCC)C(=O)SCCCN(C)C (stereo not drawn) [LIPID 18, ((4,4′-((((3-(Dimethylamino)propyl)thio)carbonyl)-azanediyl)bis(butanoyl))bis(oxy))bis(propane-2,1,3-triyl) tetrakis(2-methyloctanoate)]
- Plasma half life % remaining after 2 h ([1]; Table 1, 37° C.): 100%
- Plasma half life % remaining after 2 h ([1]; Table 2, 37° C.): 100%
- In vivo degradability (ng/tissue) at 48 h 0.03 mpk ([2]; Table 1, 0.03 mpk): <340 ng/tissue
- In vivo degradability (ng tissue) at 48 h 0.1 mpk [2]: 639 ng tissue
- In vivo degradability (ng/tissue) at 48 h 0.03 mpk ([2]; Table 2, 0.03 mpk): <340 ng/tissue
- In vivo degradability (ng/tissue) at 48 h 0.1 mpk [2]: 639 ng/tissue
